# According to publication PMC7216583 (Parasites & Vectors, 2020):
# Structures can show the parent of a compound that is named as a salt. Where two headings read alike, the source gives them in different places.
# Legend:
# [1] = system: Toxoplasma gondii RH-2F tachyzoites; test: microbe, parasite or virus in culture; details: 72 h
# ET-B = system: ET-B; parameters: method as in vendor brief description; details: ref vendor brief description; read-out: IC50 endothelin (ET) B receptor; cited from earlier work
# endothelin receptor-A = molecular target: endothelin receptor-A; parameters: method as in vendor brief description; details: ref vendor brief description; cited from earlier work
# [2] = system: Toxoplasma gondii RH-2F tachyzoites; details: 72 h, 5 μM
# αvβ3 receptor = molecular target: αvβ3 receptor; parameters: method as in vendor brief description; details: ref vendor brief description; cited from earlier work
# αvβ5 receptor = molecular target: αvβ5 receptor; parameters: method as in vendor brief description; details: ref vendor brief description; cited from earlier work
# SGLT2 = system: SGLT2; parameters: method as in vendor brief description; details: ref vendor brief description; cited from earlier work
# P-glycoprotein = molecular target: P-glycoprotein; parameters: method as in vendor brief description; details: ref vendor brief description; cited from earlier work
# TNF-α = system: TNF-α; parameters: method as in vendor brief description; details: ref vendor brief description; cited from earlier work
# PDE4 = system: PDE4; parameters: method as in vendor brief description; details: ref vendor brief description; cited from earlier work
# in vitro = details: human, Host viability (%) mean
# c-Met = system: c-Met; parameters: method as in library vendor description; details: ref library vendor description; cited from earlier work
# [3] = system: CXCL12-mediated chemotaxis; details: read-out: IC50 CXCL12-mediated chemotaxis; ref vendor brief description; cited from earlier work
# CXCR4 = system: CXCR4; parameters: method as in vendor brief description; details: ref vendor brief description; cited from earlier work
# [4] = system: non-muscle myosin II ATPases; parameters: method as in vendor brief description; details: ref vendor brief description; cited from earlier work
# Pim1 = details: read-out: IC50 Pim1; ref vendor brief description; cited from earlier work
# [5] = molecular target: secretory phospholipase A2 (sPLA); parameters: method as in library vendor description; details: ref library vendor description; cited from earlier work
# [6] = molecular target: influenza viral neuraminidase; parameters: method as in vendor catalog number S2716; details: median; compound library brief description; ref vendor catalog number S2716; read-out: IC50 of median (influenza viral neuraminidase inhibitor); cited from earlier work
# IR = system: IR; parameters: method as in library vendor description; details: ref library vendor description; cited from earlier work
# IGF-1R = system: IGF-1R; parameters: method as in library vendor description; details: ref library vendor description; cited from earlier work
# 5-HT3A = system: 5-HT3A; parameters: method as in vendor brief description; details: ref vendor brief description; read-out: IC50 5-HT(3A); cited from earlier work
# 5-HT1A = system: 5-HT1A; parameters: method as in vendor brief description; details: ref vendor brief description; cited from earlier work
# 5-HT(1B) = system: 5-HT(1B); parameters: method as in vendor brief description; details: ref vendor brief description; cited from earlier work
# SERT = system: SERT; parameters: method as in vendor brief description; details: ref vendor brief description; cited from earlier work
# 5-HT7 receptor = molecular target: 5-HT7 receptor; parameters: method as in vendor brief description; details: ref vendor brief description; cited from earlier work
# cytomegalovirus (CMV) = system: cytomegalovirus (CMV); parameters: method as in vendor brief description; details: target not stated with the value; ref vendor brief description; cited from earlier work
# Abl = system: Abl; parameters: method as in vendor brief description; details: ref vendor brief description; read-out: IC50 Abl-1; cited from earlier work
# B-Raf = system: B-Raf; parameters: method as in vendor brief description; details: ref vendor brief description; cited from earlier work
# c-Raf = system: c-Raf; parameters: method as in vendor brief description; details: ref vendor brief description; cited from earlier work
# CSF-1R = system: CSF-1R; parameters: method as in vendor brief description; details: ref vendor brief description; cited from earlier work
# HDAC10 = system: HDAC10; parameters: method as in library vendor description; details: ref library vendor description; cited from earlier work
# PPARδ = system: PPARδ; parameters: method as in vendor brief description; details: ref vendor brief description; cited from earlier work
# [7] = molecular target: transient receptor potential vanilloid-1 (TRPV1); parameters: method as in vendor brief description; details: ref vendor brief description; cited from earlier work
# hedgehog = system: hedgehog; parameters: method as in library vendor description; details: ref library vendor description; cited from earlier work
# P-gp = system: P-gp; parameters: method as in library vendor description; details: ref library vendor description; cited from earlier work
# HDAC = system: HDAC; parameters: method as in library vendor description; details: ref library vendor description; cited from earlier work
# 5-HT2B = system: 5-HT2B; parameters: method as in vendor brief description; details: ref vendor brief description; cited from earlier work
# JAK1 = system: JAK1; parameters: method as in vendor brief description; details: ref vendor brief description; cited from earlier work
# TGM2 = system: TGM2; parameters: method as in vendor brief description; details: ref vendor brief description; cited from earlier work
# [8] = molecular target: epidermal growth factor receptor (EGFR); parameters: method as in vendor brief description; details: ref vendor brief description; read-out: IC50 EFGR; cited from earlier work
# JAK3 = system: JAK3; parameters: method as in vendor brief description; details: ref vendor brief description; cited from earlier work
# S. aureus ribosomes = molecular target: S. aureus ribosomes; parameters: method as in vendor catalog number S4056; details: similar potencies on both ribosomes; compound library brief description; ref vendor catalog number S4056; read-out: Kd (binds to S. aureus ribosomes); cited from earlier work
# rabbit cathepsin K = system: rabbit cathepsin K; parameters: method as in library vendor description; details: ref library vendor description; cited from earlier work
# human cathepsin K = system: human cathepsin K; parameters: method as in library vendor description; details: ref library vendor description; cited from earlier work
# ALK = system: ALK; parameters: method as in library vendor description; details: ref library vendor description; cited from earlier work
# [9] = molecular target: cannabinoid type 1 receptor; parameters: method as in vendor brief description; details: ref vendor brief description; cited from earlier work
# B-RafV600E = system: B-RafV600E; parameters: method as in library vendor description; details: ref library vendor description; cited from earlier work
# gastric H+, K+-ATPase = molecular target: gastric H+, K+-ATPase; parameters: method as in vendor brief description; details: at pH 6.5; ref vendor brief description; cited from earlier work
# [10] = read-out: Parasite inhibition (%) mean, preliminary screen of compound library, mean
# [11] = read-out: Parasite inhibition (%) mean, preliminary screen, mean
smiles,measurement,setting,value
CCCNS(=O)(=O)Nc1ncnc(OCCOc2ncc(Br)cn2)c1-c1ccc(Br)cc1 [Macitentan],inhibition of growth at 5 µM,[1]; [10],12.3%
same,IC50,ET-B,391 nM
same,IC50,endothelin receptor-A,0.5 nM
"CC(C)[C@H]1C(=O)N[C@@H](CCCNC(=N)N)C(=O)NCC(=O)N[C@@H](CC(=O)O)C(=O)N[C@H](Cc2ccccc2)C(=O)N1C [Cilengitide (EMD 121974, NSC 707544)]",Parasite inhibition (%) mean,[2],4.9%
same,IC50,αvβ5 receptor,79 nM
OC[C@H]1O[C@@H](c2ccc(Cl)c(Cc3ccc(O[C@H]4CCOC4)cc3)c2)[C@H](O)[C@@H](O)[C@@H]1O [Empagliflozin (BI10773)],inhibition of growth at 5 µM,[1]; [10],3.8%
same,IC50,SGLT2,3.1 nM
COc1cc2c(cc1OC)CN(CCc1ccc(NC(=O)c3cc(OC)c(OC)cc3NC(=O)c3cnc4ccccc4c3)cc1)CC2 [Tariquidar],inhibition of growth at 5 µM,[1]; [10],0.4%
same,Kd,P-glycoprotein,5.1 nM
CCOc1cc([C@@H](CS(C)(=O)=O)N2C(=O)c3cccc(NC(C)=O)c3C2=O)ccc1OC [Apremilast (CC-10004)],IC50,TNF-α,77 nM
same,inhibition of growth at 5 µM,[1]; [10],-1.4%
same,IC50,PDE4,74 nM
Cn1cc(-c2ccc3nnc(C(F)(F)c4ccc5ncccc5c4)n3n2)cn1 [JNJ-38877605],viability at 72 h,in vitro,77.5%
same,inhibition of growth at 5 µM,[1]; [11],84.3%
same,IC50,c-Met,4 nM
c1cc(CN2CCCNCCNCCCNCC2)ccc1CN1CCCNCCNCCCNCC1 [Plerixafor (AMD3100)],IC50,[3],5.7 nM
same,inhibition of growth at 5 µM,[1]; read-out: Parasite inhibition (%) mean,12.9%
same,IC50,CXCR4,44 nM
Cc1ccc2c(c1)C(=O)[C@]1(O)CCN(c3ccccc3)C1=N2 [(−)-Blebbistatin],inhibition of growth at 5 µM,[1]; [10],-56.7%
same,IC50,[4],500 to 5000 nM
O=C1NC(=O)/C(=C\c2cccc(C(F)(F)F)c2)S1 [SMI-4a],inhibition of growth at 5 µM,[1]; [10],8.9%
same,IC50,Pim1,17 nM
CCc1c(C(=O)C(N)=O)c2c(OCC(=O)O)cccc2n1Cc1ccccc1 [Varespladib (LY315920)],IC50,[5],7 nM
same,inhibition of growth at 5 µM,[1]; [11],36.6%
CCC(CC)[C@H](NC(C)=O)[C@@H]1[C@H](O)[C@@H](C(=O)O)C[C@H]1NC(=N)N [Peramivir Trihydrate],inhibition of growth at 5 µM,[1]; [10],-0.4%
same,IC50,[6],0.09 nM
CCc1cc(Nc2nccc(-c3c(-c4ccc(OC)c(C(=O)Nc5c(F)cccc5F)c4)nc4ccccn34)n2)c(OC)cc1N1CCC(N2CCN(S(C)(=O)=O)CC2)CC1 [GSK1904529A],IC50,IR,25 nM
same,viability at 72 h,in vitro,76.8%
same,IC50,IGF-1R,27 nM
same,inhibition of growth at 5 µM,[1]; [11],70.6%
Cc1ccc(Sc2ccccc2N2CCNCC2)c(C)c1 [Vortioxetine (Lu AA21004) hydrobromide],IC50,5-HT3A,3.7 nM
same,IC50,5-HT1A,15 nM
same,inhibition of growth at 5 µM,[1]; [10],66.8%
same,IC50,5-HT(1B),33 nM
same,IC50,SERT,1.6 nM
same,IC50,5-HT7 receptor,19 nM
Nc1ccn(C[C@@H](CO)OCP(=O)(O)O)c(=O)n1 [Cidofovir (Vistide)],IC50,cytomegalovirus (CMV),940 nM
same,inhibition of growth at 5 µM,[1]; [10],0.8%
COc1cc2ncnc(Oc3cccc(NC(=O)Nc4cc(C(C)(C)C(F)(F)F)on4)c3)c2cc1OC [CEP-32496],IC50,Abl,3 nM
same,IC50,B-Raf,36 nM
same,inhibition of growth at 5 µM,[1]; [10],0%
same,IC50,c-Raf,39 nM
same,IC50,CSF-1R,9 nM
Cn1cc(CNCC2CCN(c3ncc(C(=O)NO)cn3)CC2)c2ccccc21 [JNJ-26481585],IC50,HDAC10,0.46 nM
same,viability at 72 h,in vitro,70.5%
same,inhibition of growth at 5 µM,[1]; [11],79.4%
O=C(NCCS(=O)(=O)c1ccc(C(F)(F)F)cn1)c1ccc(Cl)cc1 [GSK3787],pIC50 PPARδ,PPARδ,GSK3787 is as a potent and selective antagonist of PPARδ with pIC50 of 6.6.
same,inhibition of growth at 5 µM,[1]; [10],9%
CC(=O)Nc1nc2c(Oc3cc(-c4ccc(C(F)(F)F)cc4)ncn3)cccc2s1 [AMG-517],IC50,[7],< 10 nM
same,inhibition of growth at 5 µM,[1]; [10],0.6%
CS(=O)(=O)c1ccc(C(=O)Nc2ccc(Cl)c(-c3ccccn3)c2)c(Cl)c1 [Vismodegib (GDC-0449)],IC50,hedgehog,3 nM
same,inhibition of growth at 5 µM,[1]; [11],25.5%
"O=C(/C=C/c1ccc(CN(CCO)CCc2c[nH]c3ccccc23)cc1)NO [LAQ824 (NVP-LAQ824, Dacinostat)]",inhibition of growth at 5 µM,[1]; [11],60.4%
same,IC50,HDAC,32 nM
N#Cc1cc(CN2CCC(Nc3ncnc4sc(Cl)cc34)CC2)ccc1F [PRX-08066],inhibition of growth at 5 µM,[1]; [10],40.5%
same,IC50,5-HT2B,3.4 nM
CC(C)N(CCC(=O)c1ccc2ccccc2c1)Cc1ccccc1 [ZM 39923 HCl],IC50,JAK1,4400 nM
same,IC50,TGM2,10 nM
same,IC50,[8],5600 nM
same,inhibition of growth at 5 µM,[1]; [10],13.9%
same,IC50,JAK3,7100 nM
C=C[C@]1(C)C[C@@H](OC(=O)CS[C@@H]2C[C@H]3CC[C@@H](C2)N3C)[C@]2(C)[C@H](C)CC[C@]3(CCC(=O)[C@H]32)[C@@H](C)[C@@H]1O [Retapamulin],Kd,S. aureus ribosomes,3 nM
CC(C)(F)C[C@H](N[C@@H](c1ccc(-c2ccc(S(C)(=O)=O)cc2)cc1)C(F)(F)F)C(=O)NC1(C#N)CC1 [Odanacatib (MK 0822)],IC50,rabbit cathepsin K,1 nM
same,inhibition of growth at 5 µM,[1]; [11],-9.7%
same,IC50,human cathepsin K,0.2 nM
COc1cc(N2CCC(N3CCN(C)CC3)CC2)ccc1Nc1ncc(Cl)c(Nc2ccccc2S(=O)(=O)C(C)C)n1 [TAE684 (NVP-TAE684)],inhibition of growth at 5 µM,[1]; [11],6.8%
CCNC1(C(N)=O)CCN(c2ncnc3c2nc(-c2ccccc2Cl)n3-c2ccc(Cl)cc2)CC1 [Otenabant (CP-945598) HCl],Ki,[9],0.7 nM
same,inhibition of growth at 5 µM,[1]; [10],0.3%
OCCn1cc(-c2ccc3c(c2)CC/C3=N\O)c(-c2ccncc2)n1 [GDC-0879],inhibition of growth at 5 µM,[1]; [11],7.9%
same,IC50,B-RafV600E,0.13 nM
CNCc1cc(-c2ccccc2F)n(S(=O)(=O)c2cccnc2)c1 [TAK-438],inhibition of growth at 5 µM,[1]; [10],-9.6%
same,IC50,"gastric H+, K+-ATPase",19 nM
